Laboratory results reported in patent US12612411B1, “Imidazopyrazine derivatives, process for preparation thereof, and their uses as luciferins” (INSTITUT PASTEUR, priority 2017, dated 2026).

Tests used:
[1] = Acidic hydrolysis of imidazo[1,2-a]pyrazin-3-yl acetate into the luciferin, LC/MS monitoring; assay type: physicochemical; conditions: DMSO / acidic ethanol (HCl), 50° C.
Experimental: FIG. 1 illustrates the HPLC profiles over time for the acetyl hydrolysis of P-21 (M=451) into the corresponding luciferin Q-12 (M=409). Obtained on an Agilent apparatus, with a 3.5 μm XDB-C18 column and a water/methanol gradient (containing 5 mM ammonium formate, from 95-5 to 5-95 in 3.5 min, 3.5 min at 5-95, and then back at 95-5 in 0.5 min), UV monitoring set at […].
General protocol for the generation of solutions of imidazo[1,2-a]pyrazin-3(7H)-one Q by acidic hydrolysis of imidazo[1,2-a]pyrazin-3-yl acetate derivatives P. The considered acetate P (1 mg) was dissolved in DMSO (0.2 mL) and then diluted by adding a solution of acidic ethanol (0.3 ml) made from the addition of 37% hydrochloric acid (100 μl) on 100% ethanol (12 mL). This 0.5 mL solution was incubated at 50° C. for 2 hours to give a stock solution which was then stored at −80° C. […] Nota: these conditions are only adapted to the hydrolysis of the protecting group (as defined above) of the oxygen on position 2 of the imidazo[1,2-a]pyrazine ring system and not to the hydrolysis of any additional acetyl groups eventually present elsewhere on the substrate of this reaction.

nanoKAZ luciferase = target: T1, nanoKAZ luciferase (Oplophorus gracilirostris, UniProt Q9GV45, A31E/A60N/A81I/F95D/I117V/K70R/L54V/L99Q/M102K/N193R/P142E/Q151K/Q38R/Q45L/V71I/Y165I); test: In vitro bioluminescence screening of imidazo[1,2-a]pyrazin-3(7H)-ones with nanoKAZ expressed in vitro (96-well luminometer, 2 h kinetic); assay type: biochemical; conditions: furimazine = 1
T1 construct: luciferase catalytic domain (nanoKAZ, 19 kDa) from the Oplophorus-derived luciferase; host or cells: cell-free: 1-Step Human Coupled IVT Kit, pT7CFE1-based vector
T1 sequence (Q9GV45 other isoform, or with tags, fused parts or gaps with the stated changes): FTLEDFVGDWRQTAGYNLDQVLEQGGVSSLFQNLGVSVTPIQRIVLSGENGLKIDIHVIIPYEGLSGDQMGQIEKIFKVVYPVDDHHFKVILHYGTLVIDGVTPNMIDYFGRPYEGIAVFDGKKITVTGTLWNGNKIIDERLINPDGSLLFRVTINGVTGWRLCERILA
Outline: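 nanoKAZ made by human coupled IVT, diluted 400-fold then 1/20 in DPBS + 0.1% Tween 20; luciferins generated in situ by acid hydrolysis of O-acetyl precursors (DMSO/acidic ethanol, 50 °C, 2 h). Luminescence followed kinetically for 2 h; max intensity, signal half-life and 10-min and 2-h AUC normalized to furimazine.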

nanoKAZ [2] = target: T2, nanoKAZ (Oplophorus gracilirostris, UniProt Q9GV45, A31E/A60N/A81I/F95D/I117V/K70R/L54V/L99Q/M102K/N193R/P142E/Q151K/Q38R/Q45L/V71I/Y165I); test: Michaelis-Menten parameters of nanoKAZ from Lineweaver-Burk representation; assay type: biochemical; conditions: for Vmax: extrapolated from Lineweaver-Burk, constant enzyme concentration
T2 construct: luciferase catalytic domain (nanoKAZ, 19 kDa) from the Oplophorus-derived luciferase
T2 sequence (Q9GV45 other isoform, or with tags, fused parts or gaps with the stated changes): as above
Description: The two dotted lines (linear regression) are converging to the same intercept with the x-axis (−1/Km) and different intercepts with the y-axis (1/Vmax). The equations of the two linear regressions are indicated and the corresponding correlation factors (R^2) with the experimental data are reported.
Considering the hypothesis of a Michaelis-Menten mechanism for the nanoKAZ, the Km and Vmax were extrapolated from the Lineweaver-Burk representation of the enzyme activity catalyzing either Q-1 or Q-3. […] The data have been fitted with linear regression with satisfying high correlation factors (R). The Km are the same for both substrates (Km=2 μM) whereas the Vmax is 3-times lower for Q-1 (0.6·10^6 RLU/sec) than for Q-3 (2.0·10^6 RLU/sec).

[3] = cited from earlier work; for storage stability: commercially available luciferins; for permitted storage time at 4° C.: recommended storage conditions
[4] = tested on: protein chimeras fused to the nanoKAZ in transiently transfected HEK and Jurkat cell lines, and primary human T-cells; test: In cellulo bioluminescence imaging with a light microscope; assay type: cell-based
Description: FIG. 5 compares expression and location of protein chimeras fused to the nanoKAZ in transiently transfected HEK and Jurkat cell lines, and primary human T-cells: the cytokine receptor IL7Rα:nanoKAZ at the membrane (top), the enconsin tubulin binding protein EMTB:nanoKAZ associated with microtubules (middle), the transcription factor STAT5a:nanoKAZ dense throughout the cytoplasm and faint in the nucleus (bottom).
The acquisition of bioluminescence using a light microscope provides a quantitative measurement of light emission cell by cell, the main advantage. This is meaningful especially when the transfection efficiency is low in the case of nanoKAZ expression provided by plasmids. […] The higher is the bioluminescence efficiency, the lower is the exposure time and the lower is the sensitivity required for the detector or camera. NanoKAZ with developed substrates such as Q-3 or Q-12 opens the bioluminescence imaging to standard light microscope. The lower the exposure time, the higher the resolution, which is impeded by the motion of living cells. Any gain in light emission enhances the quality of images. Luciferase reporters or fragments can be fused to proteins targeting the cell surface, cytoplasm, organelles, nucleus or exosomes and can be carried by virus, host-infecting cells or agents, biologic complexes, beads or any particles. […]

nanoKAZ [5] = target: T2, nanoKAZ; test: Bioluminescence emission spectra; assay type: biochemical
Description: (§1) Furimazine (Q-1) and derivatives have emission spectra centred on 460 nm but present large peaks bleeding beyond 580 nm. The bioluminescence obtained with the analogue Q-3 provides photons with 10% of them having a wavelength beyond 560 nm up to 600 nm. This wide spectra emission toward red is thus allowing the use of the nanok AZ/furimazine for in vivo imaging. The light emission beyond 580 is thousands times higher than red emitting firefly or beetle luciferases. IL7:nanoKAZ and analogue Q-3 were injected in mice.

IL7:nanoKAZ = test: In vivo bioluminescence imaging (Ivis) after injection of IL7:nanoKAZ and substrate; conditions: IL7:nanoKAZ and substrate injected in mice
Description: as §1

nanoKAZ [6] = target: T2, nanoKAZ; test: Dynamic range of nanoKAZ bioluminescence versus serial enzyme dilutions; assay type: biochemical; conditions: constant volume 100 μL, constant substrate concentration
Experimental: FIG. 3 illustrates dynamic range (relative units (RLU) versus serial dilutions) of nanok AZ, which was plotted using the imidazo[1,2-a]pyrazin-3(7H)-one Q-3.
As depicted in FIG. 3, the dynamic range of nanoKAZ was assessed using luciferin Q-3. The enzyme was diluted three by three times and the bioluminescence has been measured on a constant volume (100 (L) and at constant concentration of the substrate. The bioluminescence is linear with the enzyme concentration over 5 orders of magnitude, overwhelming the detection system. This range can be increase by two orders of magnitude by decreasing 2 times the volume for high enzyme concentration and by increasing two times the volume for low enzyme concentration.

[7] = second table, luciferins made in situ from O-protected P

| SMILES | V1: maximum intensity, normalized using furimazine (Q-1) as a reference (nanoKAZ luciferase; Table 1) | V3: area under the curve for ten minutes, normalized using furimazine (Q-1) as a reference (nanoKAZ luciferase; Table 1) | V4: area under the curve for two hours, normalized using furimazine (Q-1) as a reference (nanoKAZ luciferase; Table 1) | V3: area under the curve for 2 hours, normalized using furimazine (Q-1) as a reference (nanoKAZ luciferase; second table) | V4: area under the curve for ten minutes, normalized using furimazine (Q-1) as a reference (nanoKAZ luciferase; second table) | V1: maximum intensity, normalized using furimazine (Q-1) as a reference (nanoKAZ luciferase; [7]) | other results |
| --- | --- | --- | --- | --- | --- | --- | --- |
| CCc1ccc(Cc2nc3c(Cc4ccccc4)nc(-c4ccccc4)cn3c2OC(C)=O)o1 [P-21, 8-Benzyl-2-((5-ethylfuran-2-yl)methyl)-6-phenylimidazo[1,2-a]pyrazin-3-yl acetate] |  |  |  |  |  |  | time to complete hydrolysis into the luciferin Q-12 [1]: complete reaction in less than two hours |
| O=c1c(Cc2ccco2)nc2c(Cc3ccccc3)[nH]c(-c3ccccc3)cn1-2 [Q-1, 8-benzyl-2-(furan-2-ylmethyl)-6-phenylimidazo[1,2-a]pyrazin-3(7H)-one, reference compound] | 1 | 1 | 1 | 1 | 1 | 1 | Vmax, times lower than for Q-3 (nanoKAZ [2]; Q-1 versus Q-3): 3 times; Vmax (nanoKAZ [2]): 0.6·10^6 RLU/sec; storage stability [3]: very weak storage stability; permitted storage time at 4° C. [3]: up to two weeks only; extension of experience times to get the same quality as with nanoKAZ/analogue Q-3 ([4]; nanoKAZ/furimazine versus nanoKAZ/Q-3): 3 folds; emission spectra centre (nanoKAZ [5]): 460 nm |
| Cc1ccc(Cc2nc3c(Cc4ccccc4)[nH]c(-c4ccccc4)cn-3c2=O)o1 [Q-3, 8-benzyl-2-((5-methylfuran-2-yl)methyl)-6-phenylimidazo[1,2-a]pyrazin-3(7H)-one] | 2.7 | 2.39 | 1.3 |  |  |  | in vivo bioluminescence image quality (IL7:nanoKAZ): Quantitative images of high quality were acquired; Vmax (nanoKAZ [2]): 2.0·10^6 RLU/sec; range over which bioluminescence is linear with the enzyme concentration (nanoKAZ [6]): 5 orders of magnitude; light emission in live-cell images compared with Q-1 ([4]; images acquired for one second from live cells, FIG. 5): gain of light emission; photons having a wavelength beyond 560 nm up to 600 nm (nanoKAZ [5]): 10% |
| O=c1c(Cc2ccc(O)cc2)nc2c(Cc3ccccc3)[nH]c(-c3ccc(O)cc3)cn1-2 [Q-86, 8-benzyl-2-(4-hydroxybenzyl)-6-(4-hydroxyphenyl)imidazo[1,2-a]pyrazin-3(7H)-one, reference compound] | 0.09 | 0.08 | 0.07 |  |  |  | storage stability [3]: very weak storage stability; permitted storage time at 4° C. [3]: up to two weeks only |
| Cc1cc(Cc2nc3c(Cc4ccccc4F)[nH]c(-c4ccccc4)cn-3c2=O)oc1C [Q-131, 2-((4,5-dimethylfuran-2-yl)methyl)-8-(2-fluorobenzyl)-6-phenylimidazo[1,2-a]pyrazin-3(7H)-one] |  |  |  | 1.9 | 1.02 | 2.01 |  |
| Cc1cc(Cc2nc3c(Cc4cccc(F)c4)[nH]c(-c4ccccc4)cn-3c2=O)oc1C [Q-132, 2-((4,5-dimethylfuran-2-yl)methyl)-8-(3-fluorobenzyl)-6-phenylimidazo[1,2-a]pyrazin-3(7H)-one] |  |  |  | 1.44 | 1 | 1.5 |  |
| CCCc1ccc(Cc2nc3c(Cc4ccccc4)[nH]c(-c4ccccc4)cn-3c2=O)o1 [Q-133, 8-benzyl-6-phenyl-2-((5-propylfuran-2-yl)methyl)imidazo[1,2-a]pyrazin-3(7H)-one] |  |  |  | 1.23 | 1.33 | 1.26 |  |
| CCc1cc(Cc2nc3c(Cc4cccc(F)c4F)[nH]c(-c4ccccc4)cn-3c2=O)oc1C [Q-135, 8-(2,3-difluorobenzyl)-2-((4-ethyl-5-methylfuran-2-yl)methyl)-6-phenylimidazo[1,2-a]pyrazin-3(7H)-one] |  |  |  | 0.51 | 1.19 | 1.26 |  |
| CCc1oc(Cc2nc3c(Cc4cccc(F)c4F)[nH]c(-c4ccccc4)cn-3c2=O)cc1C [Q-143, 8-(2,3-difluorobenzyl)-2-((5-ethyl-4-methylfuran-2-yl)methyl)-6-phenylimidazo[1,2-a]pyrazin-3(7H)-one] |  |  |  | 0.39 | 1.34 | 1.43 |  |
| O=c1c(Cc2ccco2)nc2c(Cc3ccccc3)[nH]c(-c3cccc(O)c3)cn1-2 [Q-149, 8-benzyl-2-(furan-2-ylmethyl)-6-(3-hydroxyphenyl)imidazo[1,2-a]pyrazin-3(7H)-one] |  |  |  | 0.85 | 1.05 | 1.12 |  |
